Laboratory results taken from BindingDB's records for PubMed 8863814 (Cyenamid Agricultural Research Center, 1996).
pKi: −log10 of the molar value. “And” between values parts separate entries of the source, which are not always exact repeats. Identical values can stand only once.

Tests used:
[1] = biological target: T1, Somatostatin receptor type 5 (Rattus norvegicus, UniProt P30938)
T1 sequence (P30938 whole entry): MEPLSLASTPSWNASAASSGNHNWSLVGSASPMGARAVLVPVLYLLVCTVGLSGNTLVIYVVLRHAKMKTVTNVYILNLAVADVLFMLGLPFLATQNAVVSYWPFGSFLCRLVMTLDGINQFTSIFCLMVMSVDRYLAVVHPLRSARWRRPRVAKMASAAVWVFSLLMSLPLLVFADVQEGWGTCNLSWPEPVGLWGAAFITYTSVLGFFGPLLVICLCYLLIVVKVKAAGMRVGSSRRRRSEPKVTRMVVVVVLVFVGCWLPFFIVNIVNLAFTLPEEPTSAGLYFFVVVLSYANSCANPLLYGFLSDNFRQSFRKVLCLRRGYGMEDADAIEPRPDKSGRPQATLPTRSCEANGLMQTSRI

[2] = biological target: Somatostatin receptor type 2 (Rattus norvegicus, UniProt P30680)
[3] = biological target: Somatostatin receptor type 3 (Rattus norvegicus, UniProt P30936)
[4] = biological target: Somatostatin receptor type 1 (Rattus norvegicus, UniProt P28646)
Chain of Somatostatin receptor type 1 (P28646 whole entry): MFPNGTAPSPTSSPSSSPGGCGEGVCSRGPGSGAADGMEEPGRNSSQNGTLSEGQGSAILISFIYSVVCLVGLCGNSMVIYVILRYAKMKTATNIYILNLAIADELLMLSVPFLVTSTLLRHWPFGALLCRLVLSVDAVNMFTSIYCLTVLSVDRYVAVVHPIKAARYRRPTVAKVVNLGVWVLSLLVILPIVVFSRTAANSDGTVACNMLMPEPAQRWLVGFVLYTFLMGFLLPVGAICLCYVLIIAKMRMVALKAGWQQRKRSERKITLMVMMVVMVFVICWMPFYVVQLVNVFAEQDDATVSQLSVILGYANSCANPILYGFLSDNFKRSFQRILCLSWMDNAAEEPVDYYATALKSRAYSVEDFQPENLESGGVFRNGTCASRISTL

Chain of Somatostatin receptor type 2 (P30680 whole entry): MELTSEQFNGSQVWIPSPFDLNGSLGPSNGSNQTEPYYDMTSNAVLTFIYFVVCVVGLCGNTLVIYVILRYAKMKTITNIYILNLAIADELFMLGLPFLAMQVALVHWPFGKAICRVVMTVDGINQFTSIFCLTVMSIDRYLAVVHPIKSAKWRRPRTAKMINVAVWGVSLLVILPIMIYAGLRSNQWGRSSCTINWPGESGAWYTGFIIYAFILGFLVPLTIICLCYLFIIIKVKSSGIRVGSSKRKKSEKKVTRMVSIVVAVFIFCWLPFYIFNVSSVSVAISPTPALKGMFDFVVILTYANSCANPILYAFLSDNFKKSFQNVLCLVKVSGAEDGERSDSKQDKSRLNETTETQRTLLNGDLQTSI
Chain of Somatostatin receptor type 3 (P30936 whole entry): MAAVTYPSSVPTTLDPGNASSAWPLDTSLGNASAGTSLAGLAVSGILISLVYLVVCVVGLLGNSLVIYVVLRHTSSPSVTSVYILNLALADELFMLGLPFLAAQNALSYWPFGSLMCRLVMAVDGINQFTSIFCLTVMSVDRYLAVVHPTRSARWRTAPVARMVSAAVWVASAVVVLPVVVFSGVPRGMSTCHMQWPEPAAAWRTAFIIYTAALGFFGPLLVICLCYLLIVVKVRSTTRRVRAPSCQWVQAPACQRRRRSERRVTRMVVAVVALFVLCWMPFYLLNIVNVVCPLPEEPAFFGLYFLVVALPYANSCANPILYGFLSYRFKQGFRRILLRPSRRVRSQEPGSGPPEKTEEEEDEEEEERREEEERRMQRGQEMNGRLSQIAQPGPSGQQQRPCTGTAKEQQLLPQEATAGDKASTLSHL

Row | SMILES | pKi [1] | pKi [2] | pKi [3] | pKi [4]
1 | CC(C)[C@H]1NC(=O)[C@H](CCCCN)NC(=O)[C@@H](Cc2c[nH]c3ccccc23)NC(=O)[C@H](Cc2ccc(O)cc2)NC(=O)[C@@H](NC(=O)[C@@H](N)Cc2ccc([N+](=O)[O-])cc2)CSSC[C@H](C(=O)N[C@@H](C(N)=O)[C@H](C)O)NC1=O [H2N-4-NO2-Phe-c[Cys-Tyr-D-Trp-Lys-Val-Cys]-Tyr-Nh2] | 10.00 and 9.38 |  |  | 
2 | CC(=O)N[C@@H](Cc1ccc([N+](=O)[O-])cc1)C(=O)N[C@H]1CSSC[C@@H](C(=O)N[C@@H](Cc2ccc(O)cc2)C(N)=O)NC(=O)[C@H]([C@@H](C)O)NC(=O)[C@H](CCCCN)NC(=O)[C@@H](Cc2c[nH]c3ccccc23)NC(=O)[C@H](Cc2ccc(O)cc2)NC1=O [AcNH-4-NO2-Phe-c[Cys-Tyr-D-Trp-Lys-Thr-Cys]-Tyr-NH2] |  | 10.00 | 6.00 | 
3 | CC(C)[C@@H]1NC(=O)[C@H](CCCCN)NC(=O)[C@@H](Cc2c[nH]c3ccccc23)NC(=O)[C@H](Cc2ccc(O)cc2)NC(=O)[C@H](NC(=O)[C@@H](N)Cc2ccc([N+](=O)[O-])cc2)CSSC[C@@H](C(=O)N[C@@H](Cc2ccc(O)cc2)C(N)=O)NC1=O [H2N-4-NO2-Phe-c[D-Cys-Tyr-D-Trp-Lys-Val-Cys]-Tyr-Nh2] |  | 7.89 | 6.00 | 6.00
4 | CC(=O)N[C@@H](Cc1ccc([N+](=O)[O-])cc1)C(=O)N[C@@H]1CSSC[C@@H](C(=O)N[C@@H](Cc2ccc(O)cc2)C(N)=O)NC(=O)[C@H]([C@@H](C)O)NC(=O)[C@H](CCCCN)NC(=O)[C@@H](Cc2c[nH]c3ccccc23)NC(=O)[C@H](Cc2ccc(O)cc2)NC1=O [AcNH-4-NO2-Phe-c[D-Cys-Tyr-D-Trp-Lys-Thr-Cys]-Tyr-NH2] |  | 9.52 | 7.00 | 6.00
5 | CC(=O)N[C@H](Cc1ccc([N+](=O)[O-])cc1)C(=O)N[C@@H]1CSSC[C@H](C(=O)N[C@@H](C(N)=O)[C@H](C)O)NC(=O)[C@@H](C(C)C)NC(=O)[C@H](CCCCN)NC(=O)[C@@H](Cc2c[nH]c3ccccc23)NC(=O)[C@H](Cc2ccc(O)cc2)NC1=O [AcNH-4-NO2-Phe-c[D-Cys-Tyr-D-Trp-Lys-Thr-Cys]-Tyr-NH2] | 8.60 |  |  | 
6 | CC(C)[C@H]1NC(=O)[C@H](CCCCN)NC(=O)[C@@H](Cc2c[nH]c3ccccc23)NC(=O)[C@H](Cc2ccc(O)cc2)NC(=O)[C@H](NC(=O)[C@@H](N)Cc2ccc([N+](=O)[O-])cc2)CSSC[C@H](C(=O)N[C@@H](C(N)=O)[C@H](C)O)NC1=O [H2N-4-NO2-Phe-c[D-Cys-Tyr-D-Trp-Lys-Val-Cys]-Tyr-Nh2] | 7.74 |  |  | 
7 | C[C@H](N)C(=O)NCC(=O)N[C@@H]1CSSC[C@@H](C(=O)O)NC(=O)[C@H](CO)NC(=O)[C@@H]([C@@H](C)O)NC(=O)[C@H](Cc2ccccc2)NC(=O)[C@@H]([C@@H](C)O)NC(=O)[C@H](CCCCN)NC(=O)[C@@H](Cc2c[nH]c3ccccc23)NC(=O)[C@H](Cc2ccccc2)NC(=O)[C@@H](Cc2ccccc2)NC(=O)[C@H](CC(N)=O)NC(=O)[C@@H](CCCCN)NC1=O | 8.30 |  |  | 
8 | CC(C)[C@@H]1NC(=O)[C@H](CCCCN)NC(=O)[C@@H](Cc2c[nH]c3ccccc23)NC(=O)[C@H](Cc2ccc(O)cc2)NC(=O)[C@@H](NC(=O)[C@@H](N)Cc2ccc([N+](=O)[O-])cc2)CSSC[C@@H](C(=O)N[C@@H](Cc2ccc(O)cc2)C(N)=O)NC1=O [H2N-4-NO2-Phe-c[Cys-Tyr-D-Trp-Lys-Val-Cys]-Tyr-Nh2] |  | 9.70 | 6.52 | 6.00
9 | CC(=O)N[C@H](Cc1ccc([N+](=O)[O-])cc1)C(=O)N[C@H]1CSSC[C@H](C(=O)N[C@@H](C(N)=O)[C@H](C)O)NC(=O)[C@@H](C(C)C)NC(=O)[C@H](CCCCN)NC(=O)[C@@H](Cc2c[nH]c3ccccc23)NC(=O)[C@H](Cc2ccc(O)cc2)NC1=O [AcNH-4-NO2-Phe-c[Cys-Tyr-D-Trp-Lys-Thr-Cys]-Tyr-NH2] | 8.66 |  |  | 
